Source: PMC7914897, “Cytotoxic Potential of a-Azepano- and 3-Amino-3,4-SeCo-Triterpenoids” (International Journal of Molecular Sciences, 2021)
Read-outs that look alike come from different tables or passages of the source.

Experiments:
[1] = test system: FaDu (hypopharyngeal carcinoma); assay: SRB cytotoxicity assay, 72 h; format: cell-based, human; details: Homo sapiens, cut-off 30 µM, read-out: EC50
Outline: (§1)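 EC50 values reflect percent surviving cells versus untreated controls, read at 570 nm after SRB staining of TCA-fixed monolayers. Dosing spanned 0–30 µM over 72 h.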

[2] = test system: A2780 (ovarian carcinoma); assay: SRB cytotoxicity assay, 72 h; format: cell-based, human; details: Homo sapiens; A2780, 72 h, cut-off 30 µM; read-out: EC50
Outline: as §1

[3] = test system: A375 (malignant melanoma); assay: SRB cytotoxicity assay, 72 h; format: cell-based, human; details: Homo sapiens, A-375, 72 h, A375, 72 h, cut-off 30 µM; read-out: EC50
Outline: as §1

MCF-7 (breast carcinoma) = assay: SRB cytotoxicity assay, 72 h; format: cell-based, human; details: Homo sapiens, MCF7; MCF-7, 72 h, cut-off 30 µM; read-out: EC50
Outline: as §1

[4] = test system: HT29 (colorectal carcinoma); assay: SRB cytotoxicity assay, 72 h; format: cell-based, human; details: Homo sapiens, HT-29; HT29, 72 h, cut-off 30 µM; read-out: EC50
Outline: as §1

SF-268 (CNS cancer) = assay: NCI-60 screen (SRB, 48 h); details: Homo sapiens
ACHN (Renal cancer) = assay: NCI-60 screen (SRB, 48 h)
PC-3 (Prostate cancer) = assay: NCI-60 screen (SRB, 48 h); details: Homo sapiens
UACC-62 (Melanoma) = assay: NCI-60 screen (SRB, 48 h); details: Homo sapiens
HS 578T (Breast cancer) = assay: NCI-60 screen (SRB, 48 h); details: Homo sapiens
[5] = test system: A549/ATCC (NSC lung cancer); assay: NCI-60 screen (SRB, 48 h); details: Homo sapiens
[6] = test system: NCI-H322M (NSC lung cancer); assay: NCI-60 screen (SRB, 48 h)
M14 (Melanoma) = assay: NCI-60 screen (SRB, 48 h); details: Homo sapiens
SF-539 (CNS cancer) = assay: NCI-60 screen (SRB, 48 h); details: Homo sapiens
SN12C (Renal cancer) = assay: NCI-60 screen (SRB, 48 h); details: Homo sapiens
[7] = test system: NCI-H23 (NSC lung cancer); assay: NCI-60 screen (SRB, 48 h); details: Homo sapiens
TK-10 (Renal cancer) = assay: NCI-60 screen (SRB, 48 h); details: Homo sapiens
[8] = test system: NIH 3T3 (non-malignant mouse fibroblasts); assay: SRB cytotoxicity assay, 72 h; format: cell-based; details: Mus musculus, NIH3T3; NIH 3T3, 72 h, cut-off 30 µM; read-out: EC50
Outline: as §1

SW-620 (Colon cancer) = assay: NCI-60 screen (SRB, 48 h); details: Homo sapiens
Ovarian Cancer subpanel = assay: NCI-60 screen, subpanel; details: Homo sapiens
[9] = test system: panel of approximately 60 cancer cell lines; assay: NCI-60 screen (SRB, 48 h), full panel
CAKI-1 (Renal cancer) = assay: NCI-60 screen (SRB, 48 h)
OVCAR-8 (Ovarian cancer) = assay: NCI-60 screen (SRB, 48 h); details: Homo sapiens
CNS cancer subpanel = assay: NCI-60 screen, subpanel; details: Homo sapiens
[10] = Homo sapiens, 48 h, read-out: TGI

In the case of `CC1(C)NCCC[C@]2(C)[C@H]3C=CC4=C5C[C@@](C)(CO)CC[C@]5(C)CC[C@@]4(C)[C@]3(C)CC[C@@H]12` [Compound 6, azepano-glycyrrhetol-diene], the EC50 [1] is reported as 4.44 ± 0.6 µM, the EC50 [2] is reported as 3.93 ± 0.5 µM and the EC50 [3] is reported as 6.65 ± 0.3 µM. For the same molecule, the EC50 (MCF-7 (breast carcinoma)) was 7.1 ± 0.5 µM, the EC50 [4] was 4.84 ± 0.5 µM and the GI50 (SF-268 (CNS cancer); SF-268) was 3.27 µM. The IC (TGI) (SF-268 (CNS cancer); SF-268, 48 h, read-out: TGI) was 11.6 µM, the CC50 (SF-268 (CNS cancer); SF-268, read-out: LC50) was 49.6 µM and the “Growth % of the Most Sensitive Cell Lines” value (from here on “Growth %”) (ACHN (Renal cancer); 1 dose 10 µM) was −95.35%. The GI50 (ACHN (Renal cancer); Homo sapiens) was 2.93 µM, the IC (TGI) (ACHN (Renal cancer); [10]) was 9.56 µM and the CC50 (ACHN (Renal cancer); Homo sapiens, read-out: LC50) was 33 µM. The GI50 (PC-3 (Prostate cancer); PC-3) was 3.05 µM, the IC (TGI) (PC-3 (Prostate cancer); PC-3, 48 h, read-out: TGI) was 12.3 µM and the CC50 (PC-3 (Prostate cancer); PC-3, read-out: LC50) was 38.7 µM. For the same molecule, the GI50 (UACC-62 (Melanoma); UACC-62) was 3.13 µM, the IC (TGI) (UACC-62 (Melanoma); UACC-62, 48 h, read-out: TGI) was 10.9 µM and the CC50 (UACC-62 (Melanoma); UACC-62, read-out: LC50) was 37 µM. It also gave a GI50 (HS 578T (Breast cancer)) of 3.2 µM, an IC (TGI) (HS 578T (Breast cancer); 48 h, read-out: TGI) of 13.2 µM and a CC50 (HS 578T (Breast cancer); read-out: LC50) of 71.2 µM. For the same molecule, the GI50 ([5]; A549) was 1.89 µM, the IC (TGI) ([5]; A549, 48 h, read-out: TGI) was 3.71 µM and the CC50 ([5]; A549, read-out: LC50) was 7.31 µM. The “Growth %” value ([6]; 1 dose 10 µM) was −99.73%, the GI50 ([6]; Homo sapiens) was 4.78 µM and the IC (TGI) [6, 10] was 16.9 µM. It also gave a CC50 ([6]; Homo sapiens, read-out: LC50) of 42.1 µM, a GI50 (M14 (Melanoma); M14) of 3.91 µM and an IC (TGI) (M14 (Melanoma); M14, 48 h, read-out: TGI) of 14.8 µM. For the same molecule, the CC50 (M14 (Melanoma); M14, read-out: LC50) was 41.5 µM, the GI50 (SF-539 (CNS cancer); SF-539) was 2.69 µM and the IC (TGI) (SF-539 (CNS cancer); SF-539, 48 h, read-out: TGI) was 9.26 µM. It also gave a CC50 (SF-539 (CNS cancer); SF-539, read-out: LC50) of 33 µM, a GI50 (SN12C (Renal cancer)) of 3.34 µM and an IC (TGI) (SN12C (Renal cancer); 48 h, read-out: TGI) of 12 µM. For the same molecule, the CC50 (SN12C (Renal cancer); read-out: LC50) was 41.7 µM, the GI50 ([7]; NCI-H23) was 3.15 µM and the IC (TGI) ([7]; NCI-H23, 48 h, read-out: TGI) was 12.5 µM. The CC50 ([7]; NCI-H23, read-out: LC50) was 40 µM, the GI50 (TK-10 (Renal cancer); TK-10) was 2.66 µM and the IC (TGI) (TK-10 (Renal cancer); TK-10, 48 h, read-out: TGI) was 7.15 µM. For the same molecule, the CC50 (TK-10 (Renal cancer); TK-10, read-out: LC50) was 27.3 µM, the EC50 [8] was 11.7 ± 1.4 µM and the GI50 (SW-620 (Colon cancer); SW-620) was 5.76 µM. For the same molecule, the IC (TGI) (SW-620 (Colon cancer); SW-620, 48 h, read-out: TGI) was 18.8 µM, the CC50 (SW-620 (Colon cancer); SW-620, read-out: LC50) was 47 µM and the IC (TGI) (Ovarian Cancer subpanel; 48 h, read-out: TGI MG_MID) was 15.4 µM. For the same molecule, the GI50 (Ovarian Cancer subpanel; read-out: GI50 MG_MID) was 4.67 µM, the CC50 (Ovarian Cancer subpanel; read-out: LC50 MG_MID) was 41.9 µM and the “Positive Cytotoxic Effect (cell lines with percent growth < 0 / total)” value ([9]; 1 dose 10 µM) was 59/59. For the same molecule, the “number of cancer cell lines the compound was active against” value ([9]; 1 dose 10 µM) was “pronounced antiproliferative effect against the whole NCI-60 cancer cell line panel”, the activity at 10 µM ([9]; Homo sapiens, 48 h, read-out: Mean Growth, %) was -77.2% and the activity at 10 µM ([9]; Homo sapiens, 48 h, read-out: Range of Growth, %) was -99.7 to -5.08%. The IC (TGI) ([9]; Homo sapiens, 48 h, read-out: TGI MG_MID60, average over all cell lines) was 13.2 µM, the GI50 ([9]; Homo sapiens, read-out: GI50 MG_MID60) was 4.21 µM and the GI50 ([9]; Homo sapiens, read-out: GI50 against all human tumor cell lines) was less than 15 µM. The CC50 ([9]; Homo sapiens, read-out: LC50 MG_MID60, average over all cell lines) was 41.9 µM, the “Growth %” value (CAKI-1 (Renal cancer); CAKI-1, 1 dose 10 µM) was −96.49% and the GI50 (CAKI-1 (Renal cancer); Homo sapiens, CAKI-1) was 3.7 µM. The IC (TGI) (CAKI-1 (Renal cancer); Homo sapiens, CAKI-1, 48 h, read-out: TGI) was 13.8 µM, the CC50 (CAKI-1 (Renal cancer); Homo sapiens, CAKI-1, read-out: LC50) was 39.3 µM and the GI50 (OVCAR-8 (Ovarian cancer); OVCAR-8) was 2.55 µM. It also gave an IC (TGI) (OVCAR-8 (Ovarian cancer); OVCAR-8, 48 h, read-out: TGI) of 6.66 µM, a CC50 (OVCAR-8 (Ovarian cancer); OVCAR-8, read-out: LC50) of 30.8 µM and an IC (TGI) (CNS cancer subpanel; 48 h, read-out: TGI MG_MID) of 13.5 µM. It also gave a GI50 (CNS cancer subpanel; read-out: GI50 MG_MID) of 4.53 µM and a CC50 (CNS cancer subpanel; read-out: LC50 MG_MID) of 39.7 µM.
